In ChEMBL document CHEMBL1201862, “PubChem BioAssay data set” (2004):
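Tested at 5 concentrations; 48 h exposure; 96-well plates; endpoints linearly interpolated, else capped at highest concentration. GI50 = concentration required for 50% inhibition of growth.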 The source made the active and inactive calls. Rule as the data show it: active = GI50 up to about 1.1 µM and inactive = higher.

Key:
Experiment in all cases: DTP human tumour cell line panel, 48 h
SK-MEL-5 = test system: SK-MEL-5
CAKI-1 = test system: CAKI-1
SNB-75 = test system: SNB-75
IGROV-1 = test system: IGROV-1
LOX IMVI = test system: LOX IMVI
HCT-15 = test system: HCT-15
DU-145 = test system: DU-145
SW-620 = test system: SW-620
Hs-578T = test system: Hs-578T
MOLT-4 = test system: MOLT-4
OVCAR-5 = test system: OVCAR-5
K562 = test system: K562
NCI-H522 = test system: NCI-H522
786-0 = test system: 786-0
T47D = test system: T47D
UACC-257 = test system: UACC-257
OVCAR-8 = test system: OVCAR-8
NCI-H460 = test system: NCI-H460
SK-MEL-2 = test system: SK-MEL-2
RPMI-8226 = test system: RPMI-8226

Structure (SMILES)	GI50 (SK-MEL-5)	GI50 (CAKI-1)	GI50 (SNB-75)	GI50 (IGROV-1)	GI50 (LOX IMVI)	GI50 (HCT-15) [µM]	GI50 (DU-145)	GI50 (SW-620)	GI50 (Hs-578T)	GI50 (MOLT-4)	GI50 (OVCAR-5)	GI50 (K562)	GI50 (NCI-H522)	GI50 (786-0)	GI50 (T47D)	GI50 (UACC-257)	GI50 (OVCAR-8)	GI50 (NCI-H460)	GI50 (SK-MEL-2)	GI50 (RPMI-8226)
OC(Cc1ccc2ccccc2n1)(C(F)(F)Cl)C(F)(F)Cl	> 10 µM (inactive)	> 10 µM (inactive)	> 10 µM (inactive)	> 10 µM (inactive)	> 10 µM (inactive)	> 10	> 10 µM (inactive)	> 10 µM (inactive)	> 10 µM (inactive)	> 10 µM (inactive)	> 10 µM (inactive)	> 10 µM (inactive)	> 10 µM (inactive)	> 10 µM (inactive)	> 10 µM (inactive)	> 10 µM (inactive)	> 10 µM (inactive)	> 10 µM (inactive)		
COc1c(O)cc2c(c1O)C(=O)C1=C(CCCC1)C2=O	23.9 µM (inactive)	27.5 µM (inactive)		12.6 µM (inactive)	14.7 µM (inactive)	26.1	22.3 µM (inactive)	27.4 µM (inactive)	21.8 µM (inactive)	4.8 µM (inactive)	38.4 µM (inactive)		13 µM (inactive)	17.3 µM (inactive)	17.9 µM (inactive)	34 µM (inactive)	20.4 µM (inactive)	27.1 µM (inactive)	37.6 µM (inactive)	9.53 µM (inactive)
CN(C)/C=N\c1cccc2cnccc12	> 100 µM (inactive)	> 100 µM (inactive)	44.8 µM (inactive)	> 100 µM (inactive)	> 100 µM (inactive)	> 100	> 100 µM (inactive)		> 100 µM (inactive)	> 100 µM (inactive)	> 100 µM (inactive)	> 100 µM (inactive)	> 100 µM (inactive)	> 100 µM (inactive)	> 100 µM (inactive)	> 100 µM (inactive)	> 100 µM (inactive)		> 100 µM (inactive)	> 100 µM (inactive)
C=C1OC2OC(C)C(NC(=O)OCC(Cl)(Cl)Cl)C(OC(C)=O)C2O1 (centres undefined)	> 100 µM (inactive)	> 100 µM (inactive)		> 100 µM (inactive)	> 100 µM (inactive)	> 100	> 100 µM (inactive)	> 100 µM (inactive)	> 100 µM (inactive)	> 100 µM (inactive)	> 100 µM (inactive)	> 100 µM (inactive)	> 100 µM (inactive)	> 100 µM (inactive)	> 100 µM (inactive)	> 100 µM (inactive)	> 100 µM (inactive)	> 100 µM (inactive)		> 100 µM (inactive)
COc1ccc(-c2oc3ccc(C)cc3c(=O)c2O)cc1	> 100 µM (inactive)	> 100 µM (inactive)	76.7 µM (inactive)	> 100 µM (inactive)	> 100 µM (inactive)	24.5	> 100 µM (inactive)	> 100 µM (inactive)	> 100 µM (inactive)	58.6 µM (inactive)	> 100 µM (inactive)		> 100 µM (inactive)	44.3 µM (inactive)	> 100 µM (inactive)	> 100 µM (inactive)	23.1 µM (inactive)		> 100 µM (inactive)	9.95 µM (inactive)
CCOC(=O)c1cc(C(O)P2(=O)N(CC(C)(C)C)[C@@H]3CCCC[C@H]3N2CC(C)(C)C)cn1C(=O)OC(C)(C)C (some centres undefined)	17.5 µM (inactive)	14.8 µM (inactive)		4.8 µM (inactive)	17.6 µM (inactive)	17.1	16.6 µM (inactive)	16.2 µM (inactive)	16.9 µM (inactive)	12.8 µM (inactive)	17.3 µM (inactive)	20.1 µM (inactive)	13.8 µM (inactive)	15.6 µM (inactive)	15.1 µM (inactive)	14.4 µM (inactive)	24.8 µM (inactive)		17.7 µM (inactive)	12.7 µM (inactive)
CCOC(=O)c1ccc(Nc2nc3ccc(C(F)(F)F)cc3nc2-c2ccccc2)cc1	> 100 µM (inactive)	> 100 µM (inactive)	41.3 µM (inactive)	71.9 µM (inactive)	> 100 µM (inactive)	15.4	> 100 µM (inactive)	> 100 µM (inactive)	60.5 µM (inactive)	38.1 µM (inactive)	> 100 µM (inactive)	> 100 µM (inactive)	47.9 µM (inactive)	> 100 µM (inactive)	20.5 µM (inactive)	> 100 µM (inactive)	> 100 µM (inactive)	> 100 µM (inactive)		> 100 µM (inactive)
Cc1cc(S(=O)(=O)Nc2nc3ccccc3nc2-c2ccc(Cl)cc2)c(S)cc1Cl	14 µM (inactive)	18.7 µM (inactive)		12.4 µM (inactive)		20.1	16.3 µM (inactive)		27 µM (inactive)	13.8 µM (inactive)	19.6 µM (inactive)	19.9 µM (inactive)	13.6 µM (inactive)	21 µM (inactive)	14.5 µM (inactive)	21.7 µM (inactive)	23.2 µM (inactive)	13.6 µM (inactive)	13.7 µM (inactive)	23.1 µM (inactive)
CN(C)CCNc1ccc(NCCN(C)C)c2c1C(=O)c1ncsc1C2=O	15.8 µM (inactive)	16.9 µM (inactive)	15.8 µM (inactive)	13.5 µM (inactive)	8.53 µM (inactive)	11.4	13.2 µM (inactive)	9.82 µM (inactive)	17.7 µM (inactive)	1.94 µM (inactive)	21.8 µM (inactive)	13.6 µM (inactive)	11.6 µM (inactive)	9.1 µM (inactive)	> 100 µM (inactive)	18.5 µM (inactive)	12.5 µM (inactive)		20.2 µM (inactive)	10.6 µM (inactive)
Cc1cc2c(cc1Cl)S(=O)(=O)OC(c1ccc([N+](=O)[O-])cc1)=N2	> 100 µM (inactive)	> 100 µM (inactive)	44.4 µM (inactive)	> 100 µM (inactive)	> 100 µM (inactive)	> 100	> 100 µM (inactive)	> 100 µM (inactive)	> 100 µM (inactive)	> 100 µM (inactive)		91 µM (inactive)	> 100 µM (inactive)	> 100 µM (inactive)	> 100 µM (inactive)	> 100 µM (inactive)	> 100 µM (inactive)	> 100 µM (inactive)		> 100 µM (inactive)
CC1=C/C(=N\O)C(C(O)(C(F)(F)F)C(F)(F)F)C(C)(C)C1 (centres undefined)	> 10 µM (inactive)	> 10 µM (inactive)	3.49 µM (inactive)	> 10 µM (inactive)	> 10 µM (inactive)	> 10	> 10 µM (inactive)	> 10 µM (inactive)	> 10 µM (inactive)	> 10 µM (inactive)	> 10 µM (inactive)	> 10 µM (inactive)	> 10 µM (inactive)	> 10 µM (inactive)	> 10 µM (inactive)	> 10 µM (inactive)	> 10 µM (inactive)	> 10 µM (inactive)		
Nc1c(Cl)ncnc1N[C@@H]1C[C@H]1CO	> 100 µM (inactive)	> 100 µM (inactive)	0.494 µM (active)	> 100 µM (inactive)	> 100 µM (inactive)	> 100	> 100 µM (inactive)	> 100 µM (inactive)	> 100 µM (inactive)	> 100 µM (inactive)	> 100 µM (inactive)	> 100 µM (inactive)	> 100 µM (inactive)	> 100 µM (inactive)	> 100 µM (inactive)	> 100 µM (inactive)	> 100 µM (inactive)	> 100 µM (inactive)	> 100 µM (inactive)	
COc1ccc(OC)c(C2CCc3c(cnc4nc(N)nc(N)c34)C2)c1 (centres undefined)	11 µM (inactive)	14 µM (inactive)		2.29 µM (inactive)	1.32 µM (inactive)	5.42	13.9 µM (inactive)	10.1 µM (inactive)	15.7 µM (inactive)	2.49 µM (inactive)	4.7 µM (inactive)	0.573 µM (active)	6.24 µM (inactive)	4.48 µM (inactive)	20.7 µM (inactive)	4.28 µM (inactive)	5.36 µM (inactive)	2.07 µM (inactive)	15.2 µM (inactive)	
O=c1c2cc(Cl)cc(Cl)c2oc2nc3n(c(=O)c12)CCCS3	> 100 µM (inactive)	> 100 µM (inactive)	> 100 µM (inactive)	> 100 µM (inactive)		> 100	> 100 µM (inactive)	> 100 µM (inactive)	> 100 µM (inactive)	57.8 µM (inactive)	> 100 µM (inactive)	76 µM (inactive)	16.7 µM (inactive)	> 100 µM (inactive)	57.1 µM (inactive)	> 100 µM (inactive)		> 100 µM (inactive)	> 100 µM (inactive)	> 100 µM (inactive)
CSc1[nH]cnc1C(N)=S	> 100 µM (inactive)	> 100 µM (inactive)	> 100 µM (inactive)	> 100 µM (inactive)	> 100 µM (inactive)		> 100 µM (inactive)	> 100 µM (inactive)	> 100 µM (inactive)	> 100 µM (inactive)	> 100 µM (inactive)		> 100 µM (inactive)	> 100 µM (inactive)	> 100 µM (inactive)	> 100 µM (inactive)	> 100 µM (inactive)		> 100 µM (inactive)	> 100 µM (inactive)
N=C(CC/C(N)=N/O)NO	> 100 µM (inactive)	> 100 µM (inactive)	> 100 µM (inactive)	> 100 µM (inactive)	> 100 µM (inactive)	> 100	> 100 µM (inactive)	> 100 µM (inactive)	> 100 µM (inactive)	> 100 µM (inactive)	> 100 µM (inactive)	> 100 µM (inactive)	> 100 µM (inactive)	> 100 µM (inactive)	> 100 µM (inactive)	> 100 µM (inactive)		> 100 µM (inactive)	> 100 µM (inactive)	
